Laboratory results published in patent publication US4686103A, “Method of managing cattle breeding herds” (Iowa State University Research Foundation, Inc., priority 1985, dated 1987).
Like-named read-outs stand apart in the source and are kept apart here.

Columns and labels:
primiparous beef heifers [1] = assay: Relaxin effect on pelvic area and cervical dilatation in beef heifers; format: in vivo, cattle; settings: for cervical dilatation increase: within 24 h after administration
Protocol: (§1) Beginning on day 270 of gestation, the animals were assigned randomly to one of three treatment groups; gel vehicle-treated controls, Number (N)=16; single relaxin-treated heifers, N=14; and double relaxin-treated heifers, N=17. A daily blood sample (10 ml) was obtained from a jugular vein via a hypodermic needle (16 gauge, 3.8-cm length). The blood was divided equally into two culture tubes containing 0.1 ml of heparinized saline (10 U/ml), maintained on ice, and centrifuged (2,000×g; 4° C.); plasma was decanted into two culture tubes, frozen, and stored at -20° C. for radioimmunoassay of progesterone, estrone (E1), and 17β-estradiol (17β-E2. Pelvic and cervical measurements were obtained immediately after the blood collection except on the day of treatment and postcalving, when these measurements were obtained at 12-hour intervals for 60 hours. Relaxin (1 mg, 3,000 U/mg) was infused 4 cm into the cervical os by a sterile insemination pipette on day 278.
Relaxin was extracted from ovaries of pregnant pigs and purified according to procedures described previously. See Schwabe et al., Rec. Prog. Horm. Res. (1978) 34:123. […]
Dilatation of the cervix was measured intravaginally by using a specially designed stainless-steel probe. […] The tips of the rods were expanded by rotating the conical swivel to a uniform resistance against the cervical wall, then withdrawn, and the separation of the rods was measured.
The area of the pelvic canal was calculated from determination of height and width by using a pelvimeter (Lane Manufacturing, Inc., Denver, Colo.) providing internal landmarks. Pelvic height was determined by measuring the linear distance from the midpoint of the dorsal surface of the symphysis pubis to the ventral surface of the prominent junction of the third and fourth sacral segments. Pelvic widths were determined by measuring the greatest linear distance between depression points in the shaft of the ilia at right angles to the vertical measurements. […]

[2] = test system: estrogen-primed immature Swiss-Webster mice; settings: unit defined by interpubic ligament formation vs WL1000 standard; cited from earlier work
primiparous beef heifers [3] = assay: Relaxin-induced parturition in beef heifers, intracervical infusion on day 278; format: in vivo, cattle; settings: for Day of calving: day of gestation, mean ± SE
Description: Forty-seven crossbred beef heifers approaching their first calving were used in this study. All heifers were bred by artificial insemination at estrus (day 0); pregnancy lasts approximately 283 days. Heifers calved at an average age of 25^± 1 months (± standard error, SE). Heifers were maintained under pasture conditions during the spring, summer and fall throughout gestation. Mixed silage (6.8 kg/animal/day) supplemented the hay fed during the winter. During the month before calving, corn (2/3 kg/animal/day) and mixed silage (9.0 kg/animal/day) were fed in addition to the ad libitum supply of hay.
as §1
Relaxin was extracted from ovaries of pregnant pigs and purified according to procedures described previously. See Schwabe et al., Rec. Prog. Horm. Res. (1978) 34:123. Purified porcine relaxin (3,000 U/mg) was suspended in 1 ml of vehicle prepared by mixing 0.01 molar phosphate buffer saline (M PBS), pH 7.0, and sterile gel (1 ml volume/volume "KY-4", a surgical lubricating jelly, Johnson and Johnson, Inc., New Brunswick, N.J.). Relaxin or gel vehicle was infused by means of a sterile insemination pipette after the cervical probe was withdrawn. A gloved hand was maintained in the reproductive tract of the heifer to guide the pipette through the cervical sphincter. Relaxin or the gel vehicle then was introduced and deposited 4 cm into the cervix.

[4] = test system: first-calf crossbred beef heifers; assay: Induction of parturition with relaxin in combination with dexamethasone or cloprostenol; format: in vivo, cattle; settings: for Interval between treatment and calving: mean ± SE
Description: Crossbred beef heifers were bred by artificial insemination and assigned randomly to treatment groups on day 268 of pregnancy. Blood samples were collected daily for radioimmunoassay of relaxin, progesterone, estrone and 17β-estradiol. Daily measures were obtained of pelvic dimensions and cervical dilation during the prepartum and postpartum periods. On day 272, heifers were given relaxin alone, or in combination with a prostaglandin (e.g., cloprostenol) or a glucocorticoid (e.g., dexamethasone).
On day 272, 10 days before expected parturition, dexamethasone (20 mg) was administered intramuscularly (im) to 30 first-calf crossbred beef heifers. Relaxin (3,000 Units) was administered either at the same time or 24 h later either im or infused into the cervical os. The relaxin was dissolved in phosphate buffer saline (PBS) for im injection and in PBS plus a sterile gel for infusion in the cervical os. Controls received the dexamethasone im plus either 1 ml PBS im or 1 ml PBS-gel vehicle infused into the cervical os. There were 5 heifers assigned randomly to each treatment group.
On day 272, cloprostenol (500 μg) was administered im to 30 first-calf crossbred beef heifers. Relaxin (3,000 Units) wad administered either at the same time or 24 h later either im or infused into the cervical os. The relaxin was dissolved in PBS for injection and in PBS plus sterile gel for infusion into the cervical os. Controls received the cloprostenol im plus either 1 ml PBS im or 1 ml PBS-gel vehicle infused into the cervical os. There were 5 heifers assigned randomly to each treatment group.

cows = settings: cited from earlier work
[5] = test system: first- and second-calf beef heifers; assay: Induction of parturition with cloprostenol and relaxin or PBS im; format: in vivo, cattle; settings: for Animals with placenta retained ≥24 h / Ease of calving: day 272; for Interval between treatment and calving: day 272, mean ± SE
Protocol: The effect of cloprostenol and relaxin or PBS given im on induction or parturition was determined in 16 first-calf and 25 second-calf beef heifers. The 41 heifers were given cloprostenol im plus relaxin or PBS im on day 272 of pregnancy.

[6] = relaxin twice (2 × 3,000 U, 12 h apart)
[7] = overall: relaxin with Dex or Clo vs Dex or Clo plus PBS
[8] = first-calf heifers treated day 272
[9] = first-calf heifers treated day 272, relaxin 3,000 Units, dexamethasone 20 mg or cloprostenol 500 μg

Compound: relaxin
- pelvic area (primiparous beef heifers [1]; 12 h after treatment, all relaxin-treated heifers, P<0.05): marked increases
- cervical dilatation increase (primiparous beef heifers [1]; relaxin once): 526%
- cervical dilatation increase (primiparous beef heifers [1]; relaxin twice): 634%
- relaxin potency [2]: 3000 Units/mg
- incidence of retained placenta beyond 24 h postpartum (primiparous beef heifers [3]; all relaxin-treated heifers (once or twice)): 0 of 31
- Heifers calving within 48 h after treatment, % (primiparous beef heifers [3]; relaxin once (3,000 U)): 45%
- Mean interval of days between first treatment and calving (primiparous beef heifers [3]; relaxin once (3,000 U)): 2.5 days
- Day of calving (primiparous beef heifers [3]; relaxin once (3,000 U) into cervical os): 280.5 ± 0.8
- Heifers calving within 48 h after treatment, No. (primiparous beef heifers [3]; relaxin once (3,000 U), 14 heifers): 6
- calved earlier than PBS-gel vehicle-treated heifers, average (primiparous beef heifers [3]; relaxin twice): 3.3 days
- Heifers calving within 48 h after treatment, % (primiparous beef heifers [3]; [6]): 88%
- Mean interval of days between first treatment and calving (primiparous beef heifers [3]; [6]): 2.0 days
- Day of calving (primiparous beef heifers [3]; relaxin twice (2 × 3,000 U, 12 h apart) into cervical os): 278.6 ± 1.2
- Heifers calving within 48 h after treatment, No. (primiparous beef heifers [3]; relaxin twice (2 × 3,000 U, 12 h apart), 17 heifers): 15
- heifers calving within 24 h after treatment (primiparous beef heifers [3]; relaxin-treated group vs PBS-gel vehicle, P<0.001): more heifers calving
- duration of gestation (primiparous beef heifers [3]; relaxin-treated heifers vs PBS-gel vehicle controls, P<0.05): reduced
- Animals with placenta retained ≥24 h [4, 7]: 23%
- Ease of calving [4, 7]: 62%
- Interval between treatment and calving ([4]; overall: relaxin with Dex or Clo vs Dex or Clo plus PBS, 60 first-calf heifers): 34 ± 2.8 h
- Interval between treatment and calving ([4]; overall: relaxin with Dex or Clo vs Dex or Clo plus PBS, 60 first-calf heifers, listed as relaxin): 34 h
- duration of pregnancy (cows; 3000 U/mg, four days before expected parturition): did not significantly reduce
- cervical dilation (cows; cows, a few days before expected parturition): induce cervical dilation
- duration of pregnancy (cows; heifers given relaxin intracervically on three consecutive days): Some shortening of pregnancy

Compound: C[C@@H]1C[C@H]2[C@@H]3CCC4=CC(=O)C=C[C@]4(C)[C@@]3(F)[C@@H](O)C[C@]2(C)[C@@]1(O)C(=O)CO [PBS + Dex, dexamethasone]
- Animals with placenta retained ≥24 h [4, 8]: 70%
- Ease of calving [4, 8]: 30%
- Interval between treatment and calving [4, 9]: 53 ± 2.6 h
- Interval between treatment and calving ([4]; first-calf heifers treated day 272, relaxin 3,000 Units, dexamethasone 20 mg or cloprostenol 500 μg, listed as dexamethasone plus PBS): 53 h

Compound: O=C(O)CCC/C=C\CC1C(O)CC(O)C1/C=C/C(O)COc1cccc(Cl)c1 (stereo not shown) [PBS & Clo, cloprostenol]
- Animals with placenta retained ≥24 h [4, 8]: 80%
- Ease of calving [4, 8]: 40%
- Interval between treatment and calving [4, 9]: 54 ± 3.4 h
- Interval between treatment and calving ([4]; first-calf heifers treated day 272, relaxin 3,000 Units, dexamethasone 20 mg or cloprostenol 500 μg, listed as cloprostenol plus PBS): 54 h
- Animals with placenta retained ≥24 h ([5]; 1st & 2nd calf heifers): 93%
- Ease of calving ([5]; 1st & 2nd calf heifers): 63%
- Interval between treatment and calving ([5]; 1st & 2nd calf heifers): 45 ± 6 h
- Animals with placenta retained ≥24 h ([5]; 1st calf heifers): 80%
- Ease of calving ([5]; 1st calf heifers): 40%
- Interval between treatment and calving ([5]; 1st calf heifers): 46 ± 5 h
- Animals with placenta retained ≥24 h ([5]; 2nd calf heifers): 100%
- Ease of calving ([5]; 2nd calf heifers): 75%
- Interval between treatment and calving ([5]; 2nd calf heifers): 44 ± 7 h
